Source: patent US20250340848A1, “METHODS FOR CHEMICAL REPROGRAMMING AND PLURIPOTENT STEM CELLS” (Peking University, priority 2022, published 2025)

Tested on: hADSCs
Assay: Three-stage conversion of hADSCs into hCiPSCs (methods of EXAMPLE 1), numbers of hCiPSC colonies
Type: cell-based, human
Source text: FIG. 1 illustrates a schematic of an exemplary method for converting human somatic cells into pluripotent stem cells. The method has 3 stages. During any of the 3 stages, any cell can proliferate and give rise to progeny cells. In stage 1, a first population of cells comprising somatic cells are contacted with a first composition for about 4-12 days. The first population of cells can comprise somatic cells (e.g., fibroblasts or primary human adult adipose derived mesenchymal stromal cells (hADSCs)). During and/or subsequent to contacting the first composition, at least a subset of the cells of the first population of cells or the progenies thereof are converted into a second population of cells. The second population of cells can comprise epithelial-like cells. In stage 2, the second population of cells or the progenies thereof are then contacted with a second composition for about 4-16 days. During and/or subsequent to contacting the second composition, at least a subset of the cells of the second population of cells or the progenies thereof are converted into a third population of cells. The third population of cells can comprise intermediate plastic state cells. In stage 3, the third population of cells or the progenies thereof are contacted with a third composition for about 6-12 days. During and/or subsequent to contacting the third composition, at least a subset of the cells of the third population of cells or the progenies thereof are converted into a fourth population of cells.
FIG. 2 illustrates a schematic of an exemplary method for converting human fibroblasts into pluripotent stem cells. The method can comprise 3 stages. During any of the 3 stages, any cell can proliferate and give rise to progeny cells. In stage 1, a first population of cells comprising fibroblasts is contacted with a first composition for about 8-10 days. During and/or subsequent to contacting the first composition, at least a subset of the cells of the first population of cells or the progenies thereof are converted into a second population of cells. The second population of cells can comprise epithelial-like cells. The epithelial-like cells express an increased amount of LIN28A, relative to the first population of cells or their progenies. In stage 2, the second population of cells or the progenies thereof are then contacted with a second composition for about 12-16 days. During and/or subsequent to contacting the second composition, at least a subset of the cells of the second population of cells or the progenies thereof are converted into a third population of cells. The third population of cells can comprise intermediate plastic state cells. The intermediate plastic state cells express both SALL4 and LIN28A. In stage 3, the third population of cells or the progenies thereof are contacted with a third composition for about 8-10 days. During and/or subsequent to contacting the third composition, at least a subset of the cells of the third population of cells or the progenies thereof are converted into a fourth population of cells. […] The second conversion medium can then be removed from the cells. […] The third stage 3 medium may allow the pluripotent stem cells or the progenies thereof to proliferate.
In one experiment, when converting hCiPSCs from somatic cell (e.g., hADSCs), hypoxia with 5% O2 was used in stage 1 conversion. After stage 1 conversion, cells were incubated with 21% O2. The induction medium was changed every 3-4 days. hADSCs were seeded at a density of 1×10^4 cells per well of a 12-well plate in 15% FBS-DMEM medium and would be changed into stage 1 conversion medium the next day. For stage 1 conversion, single layer epithelial-like cells induced from hADSCs would emerge at day 4-6 and approach 100% confluence at day 8-12. Then the medium was changed into stage 2 conversion medium. […]

[1] = factor removed from the stage 2 conversion medium, FIG. 17
[2] = various combinations supplemented to stage 1 conversion medium comprising CHIR99021, 616452, TTNPB and AKT Kinase Inhibitor, FIG. 5
[3] = factor removed from the stage 3 conversion medium, FIG. 19
[4] = factor removed from the stage 1 conversion medium, FIG. 4

CC(=O)N1CCN([C@H]2CCC[C@@H](NC(=O)c3cc4c(F)ccc(C)c4[nH]3)C2)CC1.O=C(O)C(F)(F)F [SETD2-IN-1, N-[(1R,3S)-3-(4-acetylpiperazin-1-yl)cyclohexyl]-4-fluoro-7-methyl-1H-indole-2-carboxamide;2,2,2-trifluoroacetic acid]
numbers of converted hCiPSCs (supplemented to the stage 1 conversion medium, FIG. 6): significantly increased the numbers of converted hCiPSCs

O=C(O)c1ccc2c(c1)nc(Nc1cccc(Cl)c1)c1ccncc12 [CX-4945, 5-(3-chloroanilino)benzo[c][2,6]naphthyridine-8-carboxylic acid]
reprogramming efficiency (AKTi and CX4945 included in the stage 2 conversion medium (Base), FIG. 18): significantly improved the reprogramming efficiency

Nc1nccc2c1ncn2[C@@H]1C=C(CO)[C@@H](O)[C@H]1O [DZNep, (1S,2R,5R)-5-(4-Amino-1H-imidazo[4,5-c]pyridin-1-yl)-3-(hydroxymethyl)-3-cyclopentene-1,2-diol]
numbers of converted hCiPSCs [1]: minimal numbers of converted hCiPSCs | numbers of converted hCiPSCs [2]: significantly increase the numbers of converted hCiPSCs

CCCC(CCC)C(=O)O [VPA, valproic acid]
numbers of converted hCiPSCs [3]: minimal numbers of converted hCiPSCs

CNC1CCC(N(Cc2cccc(-c3ccncc3)c2)C(=O)c2sc3ccccc3c2Cl)CC1.Cl (stereo not drawn) [SAG, 3-chloro-N-[4-(methylamino)cyclohexyl]-N-[(3-pyridin-4-ylphenyl)methyl]-1-benzothiophene-2-carboxamide;hydrochloride]
numbers of converted hCiPSCs [2]: significantly increase the numbers of converted hCiPSCs

Cc1cnc(-c2cnc(NCCNc3ccc(C#N)cn3)nc2-c2ccc(Cl)cc2Cl)[nH]1 [CHIR99021, 6-[[2-[[4-(2,4-Dichlorophenyl)-5-(5-methyl-1H-imidazol-2-yl)-2-pyrimidinyl]amino]ethyl]amino]-3-pyridinecarbonitrile]
numbers of converted hCiPSCs [4]: minimal numbers of converted hCiPSCs | numbers of converted hCiPSCs [1]: minimal numbers of converted hCiPSCs

CC(C)N(C[C@H]1O[C@@H](n2cnc3c(N)ncnc32)[C@H](O)[C@@H]1O)[C@H]1C[C@@H](CCc2nc3cc(C(C)(C)C)ccc3[nH]2)C1 [EPZ5676, (2R,3R,4S,5R)-2-(6-amino-9H-purin-9-yl)-5-((((1r,3S)-3-(2-(5-(tert-butyl)-1H-benzo[d]imidazol-2-yl)ethyl)cyclobutyl)(isopropyl)amino)methyl)tetrahydrofuran-3,4-diol]
numbers of converted hCiPSCs [1]: reduced the numbers of converted hCiPSCs | numbers of converted hCiPSCs [2]: significantly increase the numbers of converted hCiPSCs

N#CC[C@H](C1CCCC1)n1cc(-c2ncnc3[nH]ccc23)cn1 [Ruxolitinib, (3R)-3-cyclopentyl-3-[4-(7H-pyrrolo[2,3-d]pyrimidin-4-yl)pyrazol-1-yl]propanenitrile]
numbers of converted hCiPSCs [2]: significantly increase the numbers of converted hCiPSCs

COc1ccc(CCc2nc3cc(-c4c(C)noc4C)ccc3n2C[C@H](C)N2CCOCC2)cc1Cl [SGC-CBP30, 2-[2-(3-chloro-4-methoxyphenyl)ethyl]-5-(3,5-dimethyl-4-isoxazolyl)-1-[(2S)-2-(4-morpholinyl)propyl]-1H-benzimidazole]
numbers of converted hCiPSCs [1]: minimal numbers of converted hCiPSCs

O=C(NOC[C@H](O)CO)c1ccc(F)c(F)c1Nc1ccc(I)cc1F [PD0325901]
numbers of converted hCiPSCs [3]: minimal numbers of converted hCiPSCs

CN(C)CCOc1ccc(-c2nc(-c3ccc4c(c3)CCC4=NO)c(-c3ccncc3)[nH]2)cc1 [SB590885, 5-[2-[4-[2-(Dimethylamino)ethoxy]phenyl]-5-(4-pyridinyl)-1H-imidazol-4-yl]-2,3-dihydro-1H-inden-1-one oxime]
numbers of converted hCiPSCs [3]: minimal numbers of converted hCiPSCs

C/C(=C\c1ccc(C(=O)O)cc1)c1ccc2c(c1)C(C)(C)CCC2(C)C [TTNPB, 4-[(E)-2-(5,6,7,8-Tetrahydro-5,5,8,8-tetramethyl-2-naphthalenyl)-1-propenyl]benzoic acid]
numbers of converted hCiPSCs [4]: minimal numbers of converted hCiPSCs | numbers of converted hCiPSCs [1]: minimal numbers of converted hCiPSCs

Nc1ncnc2c1c(I)cn2[C@@H]1O[C@H](CO)[C@@H](O)[C@H]1O [5-ITU, (2R,3R,4S,5R)-2-(4-amino-5-iodopyrrolo[2,3-d]pyrimidin-7-yl)-5-(hydroxymethyl)oxolane-3,4-diol]
increase of the numbers of converted hCiPSCs (added to the stage 2 conversion medium, relative to medium without it, FIGS. 7A-7B): more than 5 fold | numbers of converted hCiPSCs [1]: minimal numbers of converted hCiPSCs

Cc1cccc(-c2n[nH]cc2-c2ccc3ncccc3n2)n1 [compound 616452, 2-(3-(6-Methylpyridin-2-yl)-1H-pyrazol-4-yl)-1,5-naphthyridine]
numbers of converted hCiPSCs [4]: minimal numbers of converted hCiPSCs | numbers of converted hCiPSCs [1]: minimal numbers of converted hCiPSCs

Cc1cc(NC(=O)c2cccc(NC(=O)/C=C/CN(C)C)c2)ccc1Nc1nccc(-c2cccnc2)n1 [JNKIN8, 3-[[(E)-4-(dimethylamino)but-2-enoyl]amino]-N-[3-methyl-4-[(4-pyridin-3-ylpyrimidin-2-yl)amino]phenyl]benzamide]
numbers of converted hCiPSCs [1]: minimal numbers of converted hCiPSCs
